According to patent publication US9783530B2, “Factor Xla inhibitors” (Merck Sharp & Dohme Corp., priority 2014, dated 2017):

Assays:
[1] = target: purified human Factor XIa (Homo sapiens (Human), UniProt P03951); assay: Factor XIa Assay; assay type: biochemical; settings: purified human Factor XIa 40 pM, substrate Z-Gly-Pro-Arg-AFC, pH 7.4; read-out: FXIa IC50
Method: The effectiveness of a compound of the present invention as an inhibitor of Coagulation Factor XIa can be determined using a relevant purified serine protease, and an appropriate synthetic substrate. The rate of hydrolysis of the chromogenic or fluorogenic substrate by the relevant serine protease was measured both in the absence and presence of compounds of the present invention. Assays were conducted at room temperature or at 37° C. […] A decrease in the rate of fluorescence change in the presence of inhibitor is indicative of enzyme inhibition. Such methods are known to one skilled in the art. […]
Factor XIa determinations were made in 50 mM HEPES buffer at pH 7.4 containing 150 mM NaCl, 5 mM CaCl2, and 0.1% PEG 8000 (polyethylene glycol; JT Baker or Fisher Scientific). Determinations were made using purified human Factor XIa at a final concentration of 40 pM (Sekisui Diagnostics) and he synthetic substrate, Z-Gly-Pro-Arg-AFC, TFA salt (Sigma #C0980) at a concentration of 100 µM.
Activity assays were performed by diluting a stock solution of substrate at least tenfold to a final concentration ≦0.1 Km into a solution containing enzyme or enzyme equilibrated with inhibitor. Times required to achieve equilibration between enzyme and inhibitor were determined in control experiments. Initial velocities of product formation in the absence (Vo) or presence of inhibitor (Vi) were measured. Assuming competitive inhibition, and that unity is negligible compared Km/[S], [I]/e, and [I]/e (where [S], [I], and e respectively represent the total concentrations, of substrate, inhibitor and enzyme), the equilibrium constant (Ki) for dissociation of the inhibitor from the enzyme can be obtained from the dependence of Vo/Vi on [I] shown in the following equation.

[2] = target: purified Human plasma kallikrein (Homo sapiens (Human), UniProt P03952); assay: Kallikrein Assay; assay type: biochemical; settings: purified Human plasma kallikrein 0.5 nM, substrate Acetyl-K-P-R-AFC, pH 7.4; read-out: P. KLK IC50
Method: The effectiveness of a compound of the present invention as an inhibitor of Kallikrein can be determined using a relevant purified serine protease, and an appropriate synthetic substrate. The rate of hydrolysis of the chromogenic or fluorogenic substrate by the relevant serine protease was measured both in the absence and presence of compounds of the present invention. Assays were conducted at room temperature or at 37° C. […] A decrease in the rate of fluorescence change in the presence of inhibitor is indicative of enzyme inhibition. Such methods are known to one skilled in the art. The results of this assay are expressed as the inhibitory constant, Ki.
Kallikrein determinations were made in 50 mM HEPES buffer at pH 7.4 containing 150 mM NaCl, 5 mM CaCl2, and 0.1% PEG 8000 (polyethylene glycol; Fisher Scientific). Determinations were made using purified Human plasma kallikrein at a final concentration of 0.5 nM (Enzyme Research Laboratories) and the synthetic substrate, Acetyl-K-P-R-AFC (Sigma # C6608) at a concentration of […].
Activity assays were performed by diluting a stock solution of substrate at least tenfold to a final concentration ≦0.2 Km into a solution containing enzyme or enzyme equilibrated with inhibitor. Times required to achieve equilibration between enzyme and inhibitor were determined in control experiments. The reactions were performed under linear progress curve conditions and fluorescence increase measured at 405 Ex/510 Em nm. Values were converted to percent inhibition of the control reaction (after subtracting 100% Inhibition value). IC50 was determined by inflection point from a four parameter logistic curve fit. Ki was calculated using the Cheng Prusoff equation, Ki=IC50/(1+([S]/Km)).

Sequence of purified human Factor XIa (P03951 388-625): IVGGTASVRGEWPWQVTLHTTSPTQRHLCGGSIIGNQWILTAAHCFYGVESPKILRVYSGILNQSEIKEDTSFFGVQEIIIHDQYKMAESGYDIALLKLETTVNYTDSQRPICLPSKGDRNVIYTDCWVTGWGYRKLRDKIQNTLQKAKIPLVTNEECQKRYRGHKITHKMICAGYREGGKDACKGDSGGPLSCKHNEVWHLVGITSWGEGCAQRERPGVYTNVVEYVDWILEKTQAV
Sequence of purified human Factor XIa (P03951 19-387 partner): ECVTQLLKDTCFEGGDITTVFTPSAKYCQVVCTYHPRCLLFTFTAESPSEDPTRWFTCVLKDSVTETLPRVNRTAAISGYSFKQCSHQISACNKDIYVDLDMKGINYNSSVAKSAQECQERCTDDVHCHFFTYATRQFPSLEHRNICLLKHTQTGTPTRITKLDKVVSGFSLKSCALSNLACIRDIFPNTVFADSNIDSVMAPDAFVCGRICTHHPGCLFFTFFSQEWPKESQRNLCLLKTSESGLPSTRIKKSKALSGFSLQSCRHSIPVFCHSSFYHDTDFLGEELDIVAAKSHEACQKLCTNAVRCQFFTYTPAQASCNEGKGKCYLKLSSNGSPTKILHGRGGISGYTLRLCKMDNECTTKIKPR
Sequence of purified Human plasma kallikrein (P03952 391-638): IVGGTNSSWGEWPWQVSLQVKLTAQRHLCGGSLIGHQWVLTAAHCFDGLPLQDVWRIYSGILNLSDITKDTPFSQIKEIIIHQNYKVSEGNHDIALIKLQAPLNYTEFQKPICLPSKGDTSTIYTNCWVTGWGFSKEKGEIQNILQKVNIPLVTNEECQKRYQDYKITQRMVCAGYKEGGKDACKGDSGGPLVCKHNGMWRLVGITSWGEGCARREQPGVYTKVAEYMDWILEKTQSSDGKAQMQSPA
Sequence of purified Human plasma kallikrein (P03952 20-390 partner): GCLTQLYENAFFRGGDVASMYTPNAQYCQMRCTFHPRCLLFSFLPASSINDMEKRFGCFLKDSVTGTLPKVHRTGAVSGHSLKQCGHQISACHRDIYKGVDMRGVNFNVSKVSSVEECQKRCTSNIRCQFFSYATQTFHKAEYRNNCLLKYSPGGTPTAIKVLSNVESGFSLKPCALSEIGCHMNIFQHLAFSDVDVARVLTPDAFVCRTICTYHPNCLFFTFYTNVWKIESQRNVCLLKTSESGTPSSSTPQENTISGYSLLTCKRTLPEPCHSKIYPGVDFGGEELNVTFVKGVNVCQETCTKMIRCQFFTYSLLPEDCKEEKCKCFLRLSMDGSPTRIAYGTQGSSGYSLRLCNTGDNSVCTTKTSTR

Structure (SMILES)	IC50 [1]	IC50 [2]
O=C(NC12CCC(C(=O)O)(CC1)CC2)C(Cc1ccccc1)c1ccc(-c2c(F)ccc(Cl)c2F)c[n+]1[O-] (single isomer, unassigned) [Example 16, 4-({2-[5-(3-chloro-2,6-difluorophenyl)-1-oxidopyridin-2-yl]-3-phenylpropanoyl}amino) bicyclo[2.2.2]octane-1-carboxylic acid]	10000 nM	–
Cc1c(-c2c(F)ccc(Cl)c2F)ccc(C(Cc2ccccc2)C(=O)Nc2ccc(C(=O)O)cc2)[n+]1[O-] (stereo not shown) [Example 26, 6-(1-((4-carboxyphenyl)amino)-1-oxo-3-phenylpropan-2-yl)-3-(3-chloro-2,6-difluorophenyl)-2-methylpyridine 1-oxide]	693 nM	–
O=C(O)c1ccc(NC(=O)C(CC2CC2)c2ccc(-c3cc(Cl)ccc3OC(F)(F)F)c[n+]2[O-])cc1 (single isomer, unassigned) [Example 38, 4-[(2-{5-[5-chloro-2-(trifluoromethoxy)phenyl]-1-oxidopyridin-2-yl}-3-cyclopropylpropanoyl)amino]benzoic acid]	1000 nM	–
O=C(O)c1ccc(NC(=O)[C@H](Cc2ccccc2)c2ccc(-c3cc(Cl)ccc3-c3cnco3)c[n+]2[O-])cc1 [Example 21, 4-{[(2R)-2-{5-[5-chloro-2-(1,3-oxazol-5-yl)phenyl]-1-oxidopyridin-2-yl}-3-phenylpropanoyl]amino} benzoic acid]	0.52 nM	–
O=C(O)c1ccc(NC(=O)C(CC2CC2)c2ccc(-c3cc(Cl)ccc3-c3cnco3)c[n+]2[O-])cc1 (single isomer, unassigned) [Example 34, 4-[(2-{5-[5-chloro-2-(1,3-oxazol-5-yl)phenyl]-1-oxidopyridin-2-yl}-3-cyclopropylpropanoyl)amino]benzoic acid]	443 nM	–
O=C(O)c1ccc(NC(=O)C(CC2CC2)c2ccc(-c3cc(Cl)ccc3-n3cc(C(F)F)nn3)c[n+]2[O-])cc1 (single isomer, unassigned) [Example 52, 4-{[2-(5-{5-chloro-2-[4-(difluoromethyl)-1H-1,2,3-triazol-1-yl]phenyl}-1-oxidopyridin-2-yl)-3-cyclopropylpropanoyl]amino}benzoic acid]	–	85.6 nM
N#Cc1ccc(Cl)c(F)c1-c1ccc(C(CC2CC2)C(=O)Nc2ccc(C(=O)O)cc2)[n+]([O-])c1 (single isomer, unassigned) [Example 29, 4-({2-[5-(3-chloro-6-cyano-2-fluorophenyl)-1-oxidopyridin-2-yl]-3-cyclopropylpropanoyl}amino)benzoic acid]	458 nM	–
O=C(Cc1ccc(-c2cc(Cl)ccc2OC(F)F)c[n+]1[O-])Nc1ccc(C(=O)O)cc1 [Example 12, 4-[({5-[5-chloro-2-(difluoromethoxy)phenyl]-1-oxidopyridin-2-yl}acetyl)amino] benzoic acid]	711 nM	–
O=C(O)c1ccc(NC(=O)C(O)c2ccc(-c3cc(Cl)ccc3C3CC3)c[n+]2[O-])cc1 (racemic) [Example 11, 4-({[5-(5-chloro-2-cyclopropylphenyl)-1-oxidopyridin-2-yl](hydroxy)acetyl}amino)benzoic acid]	2510 nM	–
O=C(O)c1ccc(NC(=O)[C@@H](Cc2ccccc2)c2ccc(-c3c(F)ccc(Cl)c3F)c[n+]2[O-])cc1 [Example 3, 4-({(2S)-2-[5-(3-chloro-2,6-difluorophenyl)-1-oxidopyridin-2-yl]-3-phenylpropanoyl}amino) benzoic acid]	825 nM	–
Cc1cc(NC(=O)C(CC2CC2)c2ccc(-c3cc(Cl)ccc3CN)c[n+]2[O-])ccc1C(=O)O (racemic) [Example 37, 4-[(2-{5-[2-(aminomethyl)-5-chlorophenyl]-1-oxidopyridin-2-yl}-3-cyclopropylpropanoyl)amino]-2-methylbenzoic acid]	228 nM	–
Cc1cc(NC(=O)C(CC2CC2)c2ccc(-c3cc(Cl)ccc3-n3cnnn3)c[n+]2[O-])ccc1C(=O)O (single isomer, unassigned) [Example 49, 4-[(2-{5-[5-chloro-2-(1H-tetrazol-1-yl)phenyl]-1-oxidopyridin-2-yl}-3-cyclopropylpropanoyl)amino]-2-methylbenzoic acid]	57 nM	–
O=C(Cc1ccc(-c2cc(Cl)ccc2C2CC2)c[n+]1[O-])Nc1ccc(C(=O)O)cc1 [Example 10, 4-({[5-(5-chloro-2-cyclopropylphenyl)-1-oxidopyridin-2-yl]acetyl}amino) benzoic acid]	2190 nM	–
O=C(O)c1ccc(NC(=O)C(CC2CC2)c2ccc(-c3cc(Cl)ccc3-c3nccs3)c[n+]2[O-])cc1 (racemic) [Example 43, 4-[(2-{5-[5-chloro-2-(1,3-thiazol-2-yl)phenyl]-1-oxidopyridin-2-yl}-3-cyclopropylpropanoyl)amino]benzoic acid]	53.6 nM	–
O=C(O)c1ccc(NC(=O)C(CC2CC2)c2ccc(-c3cc(Cl)ccc3-n3cnnn3)c[n+]2[O-])c(Cl)c1 (single isomer, unassigned) [Example 31, 3-chloro-4-[(2-{5-[5-chloro-2-(1H-tetrazol-1-yl)phenyl]-1-oxidopyridin-2-yl}-3-cyclopropylpropanoyl)amino]benzoic acid]	752 nM	–
O=C(Cc1ccc(-c2cc(Cl)ccc2C(F)F)c[n+]1[O-])Nc1ccc(C(=O)O)cc1 [Example 13, 4-[({5-[5-chloro-2-(difluoromethyl)phenyl]-1-oxidopyridin-2-yl}acetyl)amino] benzoic acid]	388 nM	–
Cc1cc(C(=O)O)ccc1NC(=O)C(CC1CC1)c1ccc(-c2cc(Cl)ccc2-n2cnnn2)c[n+]1[O-] (single isomer, unassigned) [Example 46, 4-[(2-{5-[5-chloro-2-(1H-tetrazol-1-yl)phenyl]-1-oxidopyridin-2-yl}-3-cyclopropylpropanoyl)amino]-3-methylbenzoic acid]	1000 nM	–
COC(=O)NC12CCC(NC(=O)C(Cc3ccccc3)c3ccc(-c4cc(Cl)ccc4-n4cnnn4)c[n+]3[O-])(CC1)CC2 (single isomer, unassigned) [Example 20, methyl {4-[(2-{5-[5-chloro-2-(1H-tetrazol-1-yl)phenyl]-1-oxidopyridin-2-yl}-3-phenylpropanoyl)amino]bicyclo[2.2.2]oct-1-yl}carbamate]	1000 nM	–
O=C(O)c1ccc(NC(=O)[C@@H](Cc2ccccc2)c2ccc(-c3cc(Cl)ccc3-c3cnco3)c[n+]2[O-])cc1 [Example 22, 4-{[(2S)-2-{5-[5-chloro-2-(1,3-oxazol-5-yl)phenyl]-1-oxidopyridin-2-yl}-3-phenylpropanoyl]amino} benzoic acid]	364 nM	–
O=C(O)c1ccc(NC(=O)C(CC2CC2)c2ccc(-c3c(F)ccc(Cl)c3F)c[n+]2[O-])cc1 (racemic) [Example 33, 4-({2-[5-(3-chloro-2,6-difluorophenyl)-1-oxidopyridin-2-yl]-3-cyclopropylpropanoyl}amino)benzoic acid]	134 nM	–
O=C(NC12CCC(C(=O)O)(CC1)CC2)C(Cc1ccccc1)c1ccc(-c2cc(Cl)ccc2-n2cnnn2)c[n+]1[O-] (single isomer, unassigned) [Example 18, 4-[(2-{5-[5-chloro-2-(1H-tetrazol-1-yl)phenyl]-1-oxidopyridin-2-yl}-3-phenylpropanoyl)amino] bicyclo[2.2.2]octane-1-carboxylic acid]	271 nM	–
Cc1cc(NC(=O)C(CC2CC2)c2ccc(-c3cc(Cl)ccc3-c3cnco3)c[n+]2[O-])ccc1C(=O)O (racemic) [Example 36, 4-[(2-{5-[5-chloro-2-(1,3-oxazol-5-yl)phenyl]-1-oxidopyridin-2-yl}-3-cyclopropylpropanoyl)amino]-2-methyl-benzoic acid]	94.5 nM	–
